Data published in patent US20250136722A1, “CYTOTOXICITY TARGETING CHIMERAS” (GLAXOSMITHKLINE INTELLECTUAL PROPERTY DEVELOPMENT LIMITED, priority 2021, published 2025).
Several values for one entry are separate records, joined by “and”; a condition that tells them apart may be missing. Identical values can stand only once.

Legend:
[1] = biological target: T1, CHOK1 cells engineered to overexpress human CCR2 (Homo sapiens, UniProt P41597); assay: Antibody dependent cellular cytotoxicity (ADCC) reporter assay (Example 199); assay type: cell-based; details: with anti-cotinine antibody SEQ ID NO: 11/12; CHOK1-human CCR2 target cells, Jurkat FcγRIIIa NFAT-luciferase reporter cells; 12-18 hours; read-out: ADCC Reporter Assay pEC50 (converted)
T1 construct: expressed in transfected cells; host or cells: CHOK1 cells
Method in brief: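 CHOK1-hCCR2 target cells are co-incubated for 12–18 h with Jurkat FcγRIIIa/NFAT-luciferase reporter cells, ARM compound (1 pM–10 μM) and anti-cotinine antibody with a DE-mutant human IgG1 Fc (0.01–200 μg/mL). Luminescence is expressed as signal:background against no-compound wells; EC50 comes from nonlinear fit and is reported as pEC50, averaged across runs.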

[2] = biological target: Anti-cotinine antibody SEQ ID NO: 9 / SEQ ID NO: 10 (humanized version); assay: Binding of humanized anti-cotinine antibody to ARM compounds by SPR, Biacore 8k, 25° C. (Example 202); details: top concentration 2.50E−08 M
Description: Anti-cotinine antibodies having a heavy chain sequence of SEQ ID NO: 9 and a light chain sequence of SEQ ID NO: 10 (humanized version) or a heavy chain sequence of SEQ ID NO: 11 and a light chain sequence of SEQ ID NO: 12 (rabbit version) were captured via the Fc domain to a protein A or A/G surface on flow cell 2 of a CM5 sensor chip using the Biacore 8k.
After antibody capture, a 1500 second wait step was included to reduce drift in the binding step. ARM compounds of Formula (I) were then flowed over the captured antibodies at varying top concentrations ranging from 250 nM to 4 μM (see Table 6 below for top concentration values). The top concentration was diluted 4-fold over 5 dilutions (with a 0 nM compound cycle included to blank subtract the data). Association and dissociation times of the ARMs compounds of Formula (I) varied between experiments as follows and indicated in Table 6 below: reference 1—association for 600 seconds and dissociation for 1200 seconds at 20 μl/min; reference 2—association for 240 seconds and dissociation for 300 seconds at 30 μl/min; reference 3—association for 360 seconds and dissociation for 600 seconds at 30 μl/min. Anti-cotinine antibody bound to the protein A or A/G surface was regenerated using 50 mM NaOH. Experiments were run at 25° C. at pH 7.4 using HBS-EP+ buffer using Biacore 8K control software and evaluated using Biacore Insight Evaluation software. Curves were fit with the 1:1 kinetic fit inherent to the software, utilising a local Rmax and local drift setting.
Anti-cotinine antibody was tested for binding to ARMs compounds of Formula (I) of the invention in the above assay in or more experimental runs and the results are shown in Table 6 below. Affinity is reported as a pKd value. The pKd value is the negative log of the Kd value, wherein the Kd value is the dissociation constant measured in molar (M) as noted above. For compounds tested in more than one experimental run, the pKd value is reported as an average.

[3] = test system: CCR2 expressing cells (CD11b+Ly6c+ Hi) in peripheral blood; assay: In vivo depletion assay, flow cytometry of peripheral blood (Example 201); design: species or system Human CCR2 (hCCR2) knock-in mice (C57 background); details: hCCR2 knock-in mice; IV 0.1 mpk compound + 10 mpk anti-cotinine antibody (SEQ ID NO: 13/14); peripheral blood at 48 hr
Method: Stock solution preparation: Stock solutions of compounds of Formula (I) were prepared at 20 mg/mL and 100 mg/mL in DMSO for PK/PD and dose tolerability studies respectively. Stock solutions were stored at −20° C. until further usage.
Formulations preparation: On the day of experiment, the stock solution of the compound of Formula (I) was removed from storage at −20° C. and thawed at room temperature. Anti-cotinine antibody having a heavy chain sequence of SEQ ID NO: 13 and a light chain sequence of SEQ ID NO: 14 (rabbit variable region sequence with mouse IgG2a Fc domain), if required was removed from storage at −80° C. and thawed at room temperature. Antibody vials were immediately transferred into wet ice after thawing. Compounds of Formula (I) were further diluted in DMSO as per experimental requirements.
Formulation composition: The formulation composition was Saline:DMSO:PBS. Saline was added based on the quantity required and then stock solution of the compound of Formula (I) prepared in DMSO, followed by addition of antibody in PBS. Formulations were incubated at room temperature for 30 minutes before administration to the mouse. DMSO was used at 1 to 2% (v/v) in the final formulation.
After bleeding, each mouse was sacrificed by cervical dislocation.
CCR2 depletion in peripheral blood was determined by flow cytometry. Briefly, peripheral blood was collected from all animals at the end of study termination and processed. Blood samples were lysed using 1× RBC Lysis buffer and the resulting cell pellet was washed twice in FACS buffer (HBSS containing 5% FBS). Cells were subjected to Fc blocking using mouse Fc block from Biolegend (Trustain, anti-mouse CD16/32, Cat: 101319) to block non-specific binding followed by surface staining for immune markers (CD45, CD3, CD11b, Ly6C, human CCR2). Surface staining was done for 30 minutes in ice and cells were washed twice to remove unbound antibodies. Cells were stained with 7AAD to determine viability and acquired on BD FACSVerse flow cytometer. Appropriate FMO controls and single-color controls were included in the experiment for gating and compensation respectively.
Percent depletion of CD11b+Ly6c+ Hi cells and CCR2 expression for the different treatment groups was determined.

[4] = reference 3: association 360 s, dissociation 600 s at 30 μl/min

SMILES | EC50 [1] | kd ([2]; reference 1: association 600 s, dissociation 1200 s at 20 μl/min) | ka [2, 4] | kd [2, 4] | pKd [2, 4] | % Depletion of CCR2 expressing cells [3]
CC(C)N(C)[C@@H]1CC[C@H](N2CC[C@H](Nc3ncnc4ccc(C(F)(F)F)cc34)C2=O)[C@H](NC(=O)[C@H]2CC[C@H](NC(=O)CCCO[C@H]3CC[C@H](OCCNC(=O)[C@H]4CC(=O)N(C)[C@@H]4c4cccnc4)CC3)CC2)C1 [Example 1, (2S,3S)-N-(2-(((1R,4S)-4-(4-(((1R,4R)-4-(((1R,2S,5R)-5-(Isopropyl(methyl)amino)-2-((S)-2-oxo-3-((6-(trifluoromethyl)quinazolin-4-yl)amino)pyrrolidin-1-yl)cyclohexyl)carbamoyl)cyclohexyl)amino)-4-oxobutoxy)cyclohexyl)oxy)ethyl)-1-methyl-5-oxo-2-(pyridin-3-yl)pyrrolidine-3-carboxamide] | 3.25 nM and 6.61 nM | 0.000456 s⁻¹ and 0.000649 s⁻¹ | 1.64e+06 M⁻¹ s⁻¹ | 0.000414 s⁻¹ | 9.6 | –
CN1C(=O)C[C@H](C(=O)NCCO[C@H]2CC[C@H](OCCCC(=O)N[C@H]3CC[C@H](C(=O)N[C@@H]4C[C@H](NC(C)(C)C)CC[C@@H]4N4CC[C@H](Nc5ncnc6ccc(C(F)(F)F)cc56)C4=O)CC3)CC2)[C@H]1c1cccnc1 [Example 10] | 3.16 nM | – | 1.42e+06 M⁻¹ s⁻¹ | 0.000484 s⁻¹ | 9.47 | –
CN1C(=O)C[C@H](C(=O)NCCOCCOCCOCCOCCOCCC(=O)N[C@@H]2C[C@H](NC(C)(C)C)CC[C@@H]2N2CC[C@H](Nc3ncnc4ccc(C(F)(F)F)cc34)C2=O)[C@H]1c1cccnc1 [Example 37] | – | – | – | – | – | 75%
CN1C(=O)C[C@H](C(=O)NCCOCCOCCOCCOCCOCCOCCC(=O)N[C@@H]2C[C@H](NC(C)(C)C)CC[C@@H]2N2CC[C@H](Nc3ncnc4ccc(C(F)(F)F)cc34)C2=O)[C@H]1c1cccnc1 [Example 38] | – | – | – | – | – | 84.55%
